For one experiment, the target named is T1, ERRγ (Homo sapiens, UniProt P62508).
T1 construct: Data for selected compounds in the full-length; expressed in transfected cells; host or cells: HEK293
T1 sequence (P62508 1-458): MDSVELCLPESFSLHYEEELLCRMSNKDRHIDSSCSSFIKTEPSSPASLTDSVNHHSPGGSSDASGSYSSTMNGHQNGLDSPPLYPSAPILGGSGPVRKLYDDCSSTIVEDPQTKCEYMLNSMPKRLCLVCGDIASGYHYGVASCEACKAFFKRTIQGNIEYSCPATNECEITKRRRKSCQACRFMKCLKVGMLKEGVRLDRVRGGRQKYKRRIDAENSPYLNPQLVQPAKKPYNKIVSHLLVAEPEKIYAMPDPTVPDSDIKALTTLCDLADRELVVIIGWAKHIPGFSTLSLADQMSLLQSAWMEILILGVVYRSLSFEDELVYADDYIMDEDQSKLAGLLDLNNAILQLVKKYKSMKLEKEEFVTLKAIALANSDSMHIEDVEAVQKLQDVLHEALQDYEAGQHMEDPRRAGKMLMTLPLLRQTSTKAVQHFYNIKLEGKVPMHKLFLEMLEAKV
As to the kind of experiment: Full-length ERRγ luciferase reporter assay (ERRE reporter, HEK293 cells). The format is cell-based. The conditions noted are these: HEK293 cells transfected with ERRE reporter and pcDNA3.1 ERRγ, 24 hours treatment. On the procedure:
Luciferase Assay. HEK293 cells were maintained in Dulbecco's modified Eagles medium (DMEM) supplemented with 10% fetal bovine serum at 37° C. under 5% CO2. […] Cells were transfected with ERRE reporter construct and pcDNA3.1 ERRγ. 24 hour post-transfection, the cells were treated with vehicle or compound for 24 hours.
On the technique in general: In a reporter assay the amount or activity of a reporter protein is the signal.

For a further experiment, the target named is T2, ERR gamma protein (Homo sapiens, UniProt P62508).
T2 sequence (P62508 1-458): T1 sequence (P62508 1-458)
Briefly: Protein thermal shift assay. In kind it is binding. The note with it: compound at 20 μM; ERR gamma protein 0.1 mg/mL, SYPRO-Orange; read-out: T.S. (thermal shift) range. As to the method: Six replicate reactions were set up and run in Applied Biosystems Quantstudio 7 Real-Time PCR system. Data were collected at a ramp rate of 0.05° C./s from 24° C. through 95° C. and analyzed using Protein Thermal Shift Software 1.3.

SMILES strings stand for the structures. pEC50: −log10 of the molar value.

As a reminder, the pEC50 is −log10 of the EC50, conventionally taken in molar units. Low values mean a high EC50, high ones a low EC50. At ERRγ, `O=C(Nc1cccc(F)c1)c1ccc(-c2ccc(B(O)O)cc2)s1` [Compound 8, (4-(5-((3-fluorophenyl)carbamoyl)thiophen-2-yl)phenyl)boronic acid] had a pEC50 of 7.05.

On ERRγ, `O=C(Nc1cccc(B(O)O)c1)c1ccc(-c2cccc(F)c2)s1` [Compound 50] gave a pEC50 of 6.25. The ΔTm at 20 µM on ERR gamma protein was 2 to 4 °C.

In turn, `O=C(Nc1cccc(O)c1)c1ccc(-c2ccsc2)s1` [Compound 74] had a pEC50 at ERRγ of 6.00.

For `O=C(Nc1ccncc1)c1ccc(-c2ccc(C(F)(F)F)cc2)s1` [Compound 113], the ΔTm at 20 µM at ERR gamma protein is 0 to 2 °C.

`O=C(Nc1ccc(O)cc1)c1ccc(-c2ccc(C(F)(F)F)cc2)s1` [Compound 114] showed a pEC50 at ERRγ of 5.57. Besides, the ΔTm at 20 µM on ERR gamma protein fell in the range of 2 to 4 °C.

With `CC(C)Oc1ccc(-c2ccc(C(=O)Nc3cccnc3)s2)cc1` [Compound 115], at ERR gamma protein, the ΔTm at 20 µM lay in the range of 0 to 2 °C.

For `CC(C)Oc1ccc(-c2ccc(C(=O)Nc3ccncc3)s2)cc1` [Compound 116], on ERR gamma protein, the ΔTm at 20 µM lay within 0 to 2 °C.

Take `CC(C)c1cccc(-c2ccc(C(=O)Nc3ccc(Cl)cc3)s2)c1` [Compound 117]: at ERR gamma protein, the ΔTm at 20 µM is 0 to 2 °C.

Turning to `CC(C)c1cccc(-c2ccc(C(=O)Nc3cccnc3)s2)c1` [Compound 118], the ΔTm at 20 µM at ERR gamma protein lay within 0 to 2 °C.

On to `CC(C)c1cccc(-c2ccc(C(=O)Nc3ccncc3)s2)c1` [Compound 119], for which the ΔTm at 20 µM on ERR gamma protein lay in the range of 0 to 2 °C.

With `O=C(Nc1ccncc1)c1ccc(-c2ccc3ccccc3c2)s1` [Compound 120], the ΔTm at 20 µM at ERR gamma protein was 2 to 4 °C.

Regarding `O=C(Nc1ccc(O)cc1)c1ccc(-c2ccc3ccccc3c2)s1` [Compound 121], the ΔTm at 20 µM on ERR gamma protein lay within 0 to 2 °C.

On to `O=C(Nc1ccc2ccccc2c1)c1cc(-c2ccc(O)cc2)[nH]n1` [Compound 122], for which, on ERRγ, the pEC50 was 6.13. In addition, the ΔTm at 20 µM at ERR gamma protein was in the range of 2 to 4 °C.

As to `O=C(Nc1ccc2ccccc2c1)c1cc(-c2cccc(O)c2)[nH]n1` [Compound 123], at ERR gamma protein, the ΔTm at 20 µM fell in the range of 2 to 4 °C.

Turning to `O=C(Nc1ccc(Cl)cc1)c1cc(-c2ccc(O)cc2)[nH]n1` [Compound 124], on ERR gamma protein, the ΔTm at 20 µM was in the range of 2 to 4 °C.

As to `O=C(Nc1ccc(Cl)cc1)c1cc(-c2cccc(O)c2)[nH]n1` [Compound 125], on ERRγ, the pEC50 is less than 4.60. For the same molecule, on ERR gamma protein, the ΔTm at 20 µM lay in the range of 2 to 4 °C.

Regarding `Cc1ccc(NC(=O)c2cc(-c3cccc(O)c3)[nH]n2)cc1` [Compound 126], the ΔTm at 20 µM on ERR gamma protein was in the range of 0 to 2 °C.

`Cc1ccc(NC(=O)c2cc(-c3ccc(O)cc3)[nH]n2)cc1` [Compound 127]: at ERR gamma protein, the ΔTm at 20 µM is 2 to 4 °C.

With `CC(C)(C)c1ccc(NC(=O)c2cc(-c3cccc(O)c3)[nH]n2)cc1` [Compound 128], on ERR gamma protein, the ΔTm at 20 µM fell in the range of 0 to 2 °C.

Turning to `CC(C)(C)c1ccc(NC(=O)c2cc(-c3ccc(O)cc3)[nH]n2)cc1` [Compound 129], the ΔTm at 20 µM at ERR gamma protein was in the range of 0 to 2 °C.

Turning to `CC(C)c1ccc(NC(=O)c2cc(-c3cccc(O)c3)[nH]n2)cc1` [Compound 130], the ΔTm at 20 µM on ERR gamma protein fell in the range of 0 to 2 °C.

With `O=C(Nc1ccc(O)cc1)c1cc(-c2ccc(O)cc2)[nH]n1` [Compound 131], the ΔTm at 20 µM on ERR gamma protein fell in the range of 2 to 4 °C.

On to `Nc1cccc(NC(=O)c2ccc(-c3ccc(Cl)cc3)s2)c1` [Compound 132], for which the ΔTm at 20 µM on ERR gamma protein was greater than 4 °C.

For the molecule `O=C(Nc1ccc(O)cc1)c1cc(-c2cccc(O)c2)[nH]n1` [Compound 134], the ΔTm at 20 µM at ERR gamma protein is 0 to 2 °C.

Turning to `O=C(NC1CCC(O)CC1)c1ccc(-c2ccccc2)o1` (stereo not shown) [Compound 135], at ERRγ, the pEC50 was 5.46.

In the case of `O=C(NCc1ccc(Cl)cc1)c1ccc(-c2cccc(O)c2)o1` [Compound 136], the ΔTm at 20 µM on ERR gamma protein lay within 0 to 2 °C.

Regarding `CC(C)c1ccc(-c2ccc(C(=O)Nc3ccccn3)s2)cc1` [Compound 137], the ΔTm at 20 µM on ERR gamma protein was in the range of 0 to 2 °C.

With `CC(C)c1ccc(-c2ccc(C(=O)Nc3cccnc3)s2)cc1` [Compound 138], the ΔTm at 20 µM at ERR gamma protein was in the range of 0 to 2 °C.

As to `CC(C)c1ccc(-c2ccc(C(=O)Nc3ccncc3)s2)cc1` [Compound 139], the ΔTm at 20 µM on ERR gamma protein was in the range of 2 to 4 °C.

With `CC(C)c1ccc(-c2ccc(C(=O)Nc3cccc(O)c3)s2)cc1` [Compound 140], the ΔTm at 20 µM at ERR gamma protein lay within 0 to 2 °C.

For `O=C(Nc1cccc(O)c1)c1cnc(-c2ccsc2)o1` [Compound 141], the ΔTm at 20 µM on ERR gamma protein was in the range of 0 to 2 °C.

`Nc1cccc(-c2ccc(C(=O)NCc3ccccc3)s2)c1` [Compound 142]: the ΔTm at 20 µM on ERR gamma protein was in the range of 0 to 2 °C.

As for `O=C(Nc1ccc(F)cc1)c1ncc(-c2ccc(O)cc2)s1` [Compound 144], the ΔTm at 20 µM at ERR gamma protein was 2 to 4 °C.

With `O=C(Nc1ccc(O)cc1)c1ncc(-c2ccsc2)s1` [Compound 146], at ERR gamma protein, the ΔTm at 20 µM lay within 2 to 4 °C.

As to `O=C(Nc1cccc(O)c1)c1ncc(-c2ccsc2)s1` [Compound 147], the ΔTm at 20 µM on ERR gamma protein was 0 to 2 °C.

On to `Cc1ccccc1NC(=O)c1ccc(-c2cccc(O)c2)s1` [Compound 149], for which, on ERR gamma protein, the ΔTm at 20 µM fell in the range of 0 to 2 °C.

On to `O=C(Nc1ccc(F)cc1)c1nc(-c2cccc(O)c2)cs1` [Compound 150], for which the ΔTm at 20 µM at ERR gamma protein fell in the range of 0 to 2 °C.

Turning to `CC(C)c1cccc(NC(=O)c2ccc(-c3cccc(O)c3)s2)c1` [Compound 151], the ΔTm at 20 µM at ERR gamma protein is 0 to 2 °C.

Consider `O=C(Nc1cccc(O)c1)c1nc(-c2ccsc2)cs1` [Compound 152], for which, on ERR gamma protein, the ΔTm at 20 µM lay within 0 to 2 °C.

With `O=C(Nc1ccc(O)cc1)c1nc(-c2ccsc2)cs1` [Compound 153], the ΔTm at 20 µM on ERR gamma protein lay in the range of 0 to 2 °C.

Take `O=C(Nc1ccccc1F)c1ccc(-c2cccc(C(=O)C(F)(F)F)c2)s1` [Compound 154]: the ΔTm at 20 µM at ERR gamma protein lay in the range of 0 to 2 °C.

Take `O=C(Nc1cccc(F)c1)c1ccc(-c2ccc(O)cc2)o1` [Compound 157]: the pEC50 at ERRγ is 5.47.
